Experiment: gradient 5% acetonitrile 3 min, to 50% in 2 min, to 85% in 15 min, held 3 min, 100 µL/min
Conditions: column: Zorbax Extend-C18 2.1 x 50 mm; eluents: water / acetonitrile, 0.1% formic acid
Summary of the method: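 Data were gathered over 3 months by HPLC coupled to a quadrupole time-of-flight mass spectrometer, operated in positive and negative ionization mode. Mixtures of ~100 pure standards ran on a Zorbax Extend-C18 column (2.1 × 50 mm, 1.8 μm) at 100 μL/min, with water and acetonitrile each containing 0.1% formic acid and dead and dwell volumes of 40 μL and 900 μL. Retention time was read from adduct peaks picked by computer and checked manually.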

RP-LC retention time [s]	Compound
947	CCN(CC)C(=O)CN(C)C(=O)c1cc2c(s1)N(CC1CC1)CCCC2
819	CSc1ccc(-c2nc3ccc(Cl)cn3c2Nc2ccc3c(c2)OCCO3)cc1
596	O=C(c1ccn2c(-c3ccc(Cl)cc3)nnc2c1)N1CCN(c2ccccn2)CC1
779	Cc1sc2ccn(C)c(=O)c2c1C(=O)NC(C)c1ccc(F)cc1 (stereo not drawn)
714	O=C1CN(Cc2ccco2)C2CS(=O)(=O)CC2N1c1ccc(Cl)cc1 (stereo not drawn)
589	COc1ccc(S(=O)(=O)NCCCn2ccnc2)cc1C(C)(C)C
808	CSc1ccc(-c2nc3cccc(C)n3c2Nc2ccccc2C)cc1
824	COCCCn1c(C)c(C)c(S(=O)(=O)c2ccccc2)c1NC(=O)C1CCCO1 (stereo not drawn)
896	COCc1nc(-c2ccc(OC3CCN(C(=O)C4(c5ccc(OC)cc5)CC4)C3)cc2)no1 (stereo not drawn)
583	Cc1ccc(CNC(=O)C2CCCN(c3cc(=O)n(C)c(=O)n3C)C2)o1 (stereo not drawn)
738	CC1(C)CC(=O)c2cn(-c3ccccc3)c(=O)c(C(=O)NCC3CCCO3)c2C1 (stereo not drawn)
599	CCN(CC)CCNC(=O)C1c2ccccc2C(=O)N2CCc3cc(OC)c(OC)cc3C12 (stereo not drawn)
584	Cc1ccc2c(Nc3cc(F)ccc3F)c(C(=O)N3CCCC3)cnc2n1
881	CCn1c(=O)sc2cc(S(=O)(=O)N3CCC(C(=O)NCc4ccccc4OC)CC3)ccc21
643	COC(=O)C1=CN(C2CC2)c2cc(N3CCN(C4CCCCC4)CC3)c(F)cc2S1(=O)=O
597	CCc1nc2ccccc2n1CC(=O)NCC(C)C
714	CC(Cc1ccco1)NC(=O)c1ccc2nc(CCc3ccccc3)oc2c1 (stereo not drawn)
634	Cc1nn(CC(=O)NCCCN(C)C2CCCCC2)c(=O)c2nn(-c3ccccc3)c(C)c12
870	COc1cccc(-c2noc(Cn3ccn(-c4cc(C)cc(C)c4)c(=O)c3=O)n2)c1OC
874	COc1ccc2[nH]cc(CCNC(=O)CCC3CCCCC3)c2c1
872	O=C1NC2(CCN(C(=O)Nc3ccc(F)cc3)CC2)N=C1c1cccc(Cl)c1

RP-LC retention time [s]	Compound
693	FC1(c2nc(Cc3ccccc3)no2)CCN(Cc2ccoc2)CC1
743	Cc1cc2[nH]c(C(=O)Nc3ccc(F)c(F)c3F)c(CN3CCOCC3)c2s1
766	Cc1noc(/C=C\c2ccc(S(=O)(=O)NC3CC3)cc2)c1NC(=O)C1CC1
708	CCC(C)NC(=O)c1nc(-c2ccnc(N3CCCCCC3)c2)no1 (stereo not drawn)
1130	Cc1cccc(N2CCN(S(=O)(=O)c3cc(-c4nnc(C5CC5)o4)co3)CC2)c1C
740	COCCN1CCn2cc(S(=O)(=O)Nc3ccc(C)c(F)c3)cc2C1=O
819	Cc1nnc(-c2nnc(NCc3ccccc3F)c3ccccc23)o1
947	COc1ccc(-c2noc(C3CC(=O)N(c4ccc(OC)c(Cl)c4)C3)n2)cc1 (stereo not drawn)
694	CSc1cccc(NC(=O)N2CCN(c3cnn4c(C5CC5)nnc4c3)CC2)c1
831	Cc1cccc(-c2csc3c(=O)n(Cc4cc(=O)n5ccccc5n4)cnc23)c1
964	Cc1coc2c(C)c3oc(=O)c(CCC(=O)NCCc4c[nH]c5ccccc45)c(C)c3cc12
825	Cc1cccc(CNC(=O)C2c3ccccc3CC(=O)N2C(C)C)c1 (stereo not drawn)
1150	COc1ccc(-c2nnc(-c3cc(S(=O)(=O)N4CCCCCC4)ccc3Cl)o2)cc1
903	C=CC(C)(C)c1cc(/C=C/C(=O)c2ccc(O)cc2)c(OC)cc1O
974	COc1ccc(OC)c(NC(=O)C2CCN(S(=O)(=O)c3c(C)nn(-c4ccccc4)c3C)CC2)c1
809	O=C(NC1CC1)C1CCN(c2nc3ccc(-c4cccs4)nc3s2)CC1
819	COc1ccc(Cc2cnc(NC(=O)C3Cc4ccccc4C(=O)O3)s2)cc1 (stereo not drawn)
735	Cc1ccc2nc(-c3ccc(Cl)cc3)c(Nc3ccc4c(c3)OCCO4)n2c1
660	CCOC(=O)Cc1cc(=O)oc2cc(O)cc(O)c12
638	O=C1Nc2cc(C(=O)N3CCN(c4ccc(Cl)cc4)CC3)ccc2N2CCCCC12 (stereo not drawn)
918	CCn1cc(-c2nc(CC(=O)Nc3ccc(OC)c(Cl)c3)cs2)c2cccnc21

RP-LC retention time [s]	Compound
711	COc1ccc(NC(=O)C2CCN(S(=O)(=O)c3cn(C(C)C)cn3)CC2)cc1
568	CCNC(=O)c1cc(C)nc2ccc(C)cc12
1090	c1ccc2c(c1)OCC(c1nc(-c3ccc(-n4cccn4)nc3)no1)O2 (stereo not drawn)
603	COc1ccc(-c2noc(-c3ccc(NCCCN4CCC(N5CCCCC5)CC4)nn3)n2)cc1
969	Nc1nc(-c2ccc(F)cc2)nn1C(=O)c1ccc(F)cc1
902	CCCN(C(=O)c1c(C)oc2nc(C)nc(N3CCOCC3)c12)c1ccc(OCC)cc1
662	Cc1ccn2cc(-c3ccc(NS(=O)(=O)c4cccc([N+](=O)[O-])c4)cc3)nc2n1
1270	Cc1sc(NC(=O)Cc2csc(-c3ccccc3)n2)nc1-c1ccc(Br)cc1
718	O=C1NCC/C1=C\c1ccc(C(F)(F)F)cc1
1350	CCOc1ccc(-c2nc(NC(=O)Cc3csc(COc4cc(C)ccc4C)n3)sc2C)cc1
1090	Cc1ccc(NC(=O)Nc2nccn(-c3cccc(Cl)c3)c2=O)cc1C
626	CCCN1CCN(C(=O)CC(c2cc(OC)c(OC)c(OC)c2)N2Cc3ccccc3C2=O)CC1 (stereo not drawn)
923	CCCCOc1ccc(NC(=O)c2oc3ccc(C)cc3c2C)c2cccnc12
910	Cn1nc(-c2nnc(-c3ccc(F)cc3)o2)c2c1CCN(S(=O)(=O)c1cccc3nsnc13)C2
733	CCn1cc(C)c(C(=O)O)c1CC(=O)NCc1cccs1
711	CS(=O)(=O)c1cccc(-c2nnc(NC(=O)c3ccc(Cl)s3)o2)c1
585	CS(=O)(=O)Nc1ccc(CC(=O)NC2CC2)cc1
706	Fc1ccc(-c2ccc(CNCc3cccs3)o2)cc1
793	O=C(Nc1ccc(F)cc1Cl)C1CCc2nc(N3CCOCC3)ncc2C1 (stereo not drawn)
802	Cc1cc(=O)n(CC(=O)Nc2ccccc2F)c(N2CCc3ccccc3C2)n1
1210	Cc1cccc(-c2noc(-c3nnn4c3COC(c3ccc(F)cc3)C4)n2)c1 (stereo not drawn)

RP-LC retention time [s]	Compound
638	CCNC(=O)C1CCCN(c2nc3ncn(CC(=O)NCc4ccccc4)c(=O)c3s2)C1 (stereo not drawn)
665	O=C1NCCOCCCN(C(=O)Nc2ccc3c(c2)OCCO3)[C@H]2CCCC[C@@H]12
893	CC1CCN(S(=O)(=O)c2ccc3nn(Cc4ccccc4)c(=O)n3c2)CC1
735	Cc1noc2ncn(CC(=O)Nc3ccc(F)cc3)c(=O)c12
555	COc1ccc(CN2CCc3nc(N4CCN(c5ccccn5)CC4)ncc3C2)c(OC)c1OC
624	CC1=C(c2ccc(C)cc2)S(=O)(=O)N=C1N1CCCN(C(=O)Cc2cccnc2)CC1
549	CCCN1CCN(c2ncc3c(n2)CCN(Cc2cc(F)cc(F)c2)C3)CC1
565	COc1ccc(CCNC(=O)NCC2CCN(Cc3ccsc3)CC2)cc1
1210	Cc1ccc(-c2nc(-c3cccc(-c4ccnn4C)c3)no2)cc1
702	Cn1cnc(S(=O)(=O)N2CCC(C(=O)NCc3ccc(Cl)cc3)CC2)c1
1010	COc1cccc(-c2noc(Cn3ccn4nc(-c5ccc(F)cc5)cc4c3=O)n2)c1OC
689	Cc1cc2c(=O)n(CC(=O)Nc3ccc(F)cc3)c3cccnc3n2n1
744	Cn1nc(C(=O)N2CCCCC2)c2c1CCN(C(=O)CCC(=O)NCCC1=CCCCC1)C2
860	CCOC(=O)C1=C(C)NC2=C(C(=O)C(C(=O)OC)C(C)C2)C1c1ccc(OC)cc1 (stereo not drawn)
1100	Cc1ccc(CNC(=O)C2CCCN(c3nc4c(s3)c(C)nn4-c3ccc(F)cc3)C2)o1 (stereo not drawn)
568	Cc1ccc(Oc2cccc(C(=O)Nc3ccc(-c4cn5ccccc5n4)cc3)c2)nn1
674	CC(C)N(CCCNC(=O)Cn1cc2c(n1)CCCCC2)Cc1ccccc1
894	Cc1noc(C)c1-c1ccc(S(=O)(=O)NCc2ccc3c(c2)OCO3)cc1
600	CCN(CC)c1ccc(NC(=O)CSc2cc(N3CCCC3)ncn2)c(C)c1
664	CN(C)C/C=C(/c1ccc(Br)cc1)c1cccnc1
930	COc1cccc(CNC(=O)C2(C)CCCN(C(=O)Nc3ccc(C)cc3C)C2)c1 (stereo not drawn)

Compound	RP-LC retention time [s]
COc1ccc2c(c1)C1(CCN(C(=O)NC3CCCCC3)C1)C(=O)N2C (stereo not drawn)	778
COc1ccc2c(c1)C1(CCN(S(=O)(=O)c3cc(F)cc(F)c3)C1)C(=O)N2 (stereo not drawn)	872
O=C(Cc1c(F)cccc1Cl)N1CCN(Cc2ccsc2)CC1	570
COc1ccc2c(c1)C1(CCN(C(=O)c3cccc(C)c3)C1)C(=O)N2 (stereo not drawn)	738

— the METLIN SMRT retention time set (Domingo-Almenara et al. 2019)
